According to patent US11576381B2, “Composition and a method of using the composition to increase wheat yield” (priority 2019, dated 2023):
“And” between values parts separate entries of the source, which are not always exact repeats. Equal values may be shown once.

Columns and labels:
[1] = test system: grasses; test: Grass control in QPE-tolerant wheat treated with herbicides; assay type: in vivo
Method: (§1) Yield of QPE-tolerant wheat in bushels per acre was measured under the following conditions: where no QPE was applied, where QPE was applied alone, where one or more broadleaf herbicides were applied, and where a combination of a QPE source and a broadleaf herbicide were applied together. For each test condition, the level of both grass control and broadleaf control was recorded. Finally, the application rate of each active substance was recorded. One QPE source is Aggressor™ which comprises Quizalofop-P-ethyl 10.3%.

[2] = test system: broadleaf weeds; test: Broadleaf weed control in QPE-tolerant wheat treated with herbicides; assay type: in vivo
Method: as §1

[3] = test system: QPE-tolerant wheat; test: Yield of QPE-tolerant wheat in bushels per acre; assay type: in vivo
Method: as §1

[4] = soil; cited from earlier work
[5] = Treatment B Rate/Acre .60 oz/acre
[6] = Treatment B Rate/Acre 1.00 lb ai/acre
[7] = Treatment B Rate/Acre .50 lb ai/acre
[8] = Treatment B Rate/Acre .90 oz/acre
[9] = Treatment B Rate/Acre 4.75/acre
[10] = Treatment B Rate/Acre 2 oz/acre
[11] = Treatment B Rate/Acre .30 oz/acre
[12] = Treatment B Rate/Acre 3 fl oz/acre
[13] = Treatment B Rate/Acre 4 fl oz/acre
[14] = Treatment B Rate/Acre 5 fl oz/acre
[15] = Treatment B Rate/Acre .66 oz/acre

COc1nc(C)nc(NC(=O)NS(=O)(=O)c2ccccc2CCC(F)(F)F)n1 [Prosulfuron]
Grass Control [1, 5]: 0% | Broadleaf Weed Control [2, 5]: 85% | Yield [3, 5]: 59.2 Bu/acre

CNC.O=C(O)COc1ccc(Cl)cc1Cl [2,4-D Amine]
Grass Control [1, 6]: 0% | Grass Control [1, 7]: 0% | Broadleaf Weed Control [2, 6]: 90% | Broadleaf Weed Control [2, 7]: 75% | Yield [3, 6]: 56.8 Bu/acre | Yield [3, 7]: 55.7 Bu/acre

CCCOc1nn(C(=O)[N-]S(=O)(=O)c2ccccc2C(=O)OC)c(=O)n1C.[Na+] [Propoxycarbazone]
Grass Control [1, 8]: 45% | Broadleaf Weed Control [2, 8]: 65% | Yield [3, 8]: 63.2 Bu/acre

COc1cc(OC)nc(NC(=O)NS(=O)(=O)c2cc(CNS(C)(=O)=O)ccc2C(=O)O)n1 [Mesosulfuron]
Grass Control [1, 9]: 35% | Broadleaf Weed Control [2, 9]: 50% | Yield [3, 9]: 60.4 Bu/acre

CNC.Cc1cc(Cl)ccc1OCC(=O)O [MCPA Amine]
Grass Control [1, 6]: 0% | Grass Control [1, 7]: 0% | Broadleaf Weed Control [2, 6]: 93% | Broadleaf Weed Control [2, 7]: 78% | Yield [3, 6]: 56.9 Bu/acre | Yield [3, 7]: 52.4 Bu/acre

COc1cc(OC)n2nc(NS(=O)(=O)c3c(C(F)(F)F)ccnc3OC)nc2n1 [Pyroxsulam]
Grass Control [1, 10]: 70% | Broadleaf Weed Control [2, 10]: 30% | Yield [3, 10]: 60.3 Bu/acre

COc1nc(C)nc(N(C)C(=O)NS(=O)(=O)c2ccccc2C(=O)O)n1 [Tribenuron]
Grass Control [1, 11]: 0% | Broadleaf Weed Control [2, 11]: 93% | Yield [3, 11]: 58.4 Bu/acre

CCOC(=O)[C@@H](C)Oc1ccc(Oc2cnc3cc(Cl)ccc3n2)cc1 [Quizalofop-p-ethyl]
Koc [4]: 510 and 570

COc1c(Cl)ccc(Cl)c1C(=O)O [Dicamba]
Grass Control [1, 12]: 0% | Grass Control [1, 13]: 0% | Grass Control [1, 14]: 0% | Broadleaf Weed Control [2, 12]: 90% | Broadleaf Weed Control [2, 13]: 93% | Broadleaf Weed Control [2, 14]: 96% | Yield [3, 12]: 56.7 Bu/acre | Yield [3, 13]: 57.9 Bu/acre | Yield [3, 14]: 58.4 Bu/acre

CCS(=O)(=O)c1nc2ccccn2c1S(=O)(=O)NC(=O)Nc1nc(OC)cc(OC)n1 [Sulfosulfuron]
Grass Control [1, 15]: 55% | Broadleaf Weed Control [2, 15]: 60%

COc1nn(C(=O)NS(=O)(=O)c2ccccc2OC(F)(F)F)c(=O)n1C [Flucarbazone]
Grass Control [1, 10]: 65% | Broadleaf Weed Control [2, 10]: 55% | Yield [3, 10]: 67.3 Bu/acre
